Data published in US20080063668A1, “Nitroimidazole and terconazole composition and method” (priority 2006, published 2008).

Assays:
[1] = tested on: Mobiluncus curtisii var. holmesii ATCC 35242; assay: Inhibition of bacteria growth, drug dilution tubes, anaerobic; type: cell-based; parameters: key: (+) for growth; (−) for no growth; (±) for suboptimal growth after an initial observation of growth
Protocol: Serial dilutions of tinidazole and terconazole were prepared by adding measured amounts of each substance to water (both individually and in combination). Seven bacterial organisms that are common pathogens in bacterial vaginosis were grown anaerobically in the medium as listed in Table 4 under a N2/H2/CO2 (85:5:10) head space atmosphere. [table] These cultures were diluted to a 0.5 McFarland standard prior to inoculation of drug dilution tubes. One (1) mL of the 0.5 McFarland preparation was inoculated to an anaerobically prepared test tube containing 0.8 mL of Difco anaerobic medium (DAMM) and 0.2 mL of appropriate diluted antimicrobial or antimicrobial combination for a total of 2 mL. The inoculated tubes were then incubated at 37° C. and monitored daily for growth. Growth was scored with a (+) for growth, (−) for no growth, and (±) for suboptimal growth after an initial observation of growth. Tinidazole is abbreviated as TNZ and terconazole is abbreviated as TER in Tables 5 through 11.

[2] = Solubilization of terconazole in water with acid (crystal observation); type: physicochemical
Protocol: Weighed amounts of terconazole were added to separate containers including an acid in water, applying heat, if necessary, to dissolve the terconazole. The amount of acid was selected to be about equimolar with the amount of terconazole added. After the terconazole was dissolved, each solution was cooled to about 4° C. to force crystallization of the terconazole. If crystals were not observed upon cooling, seed crystals of terconazole were then added and the solutions were again cooled to about 4° C. for about 72 hours. After allowing for crystal formation in all solutions, the solutions were allowed to warm to room temperature (about 20° C.).
Table 2 includes dissolution data for a number of compositions comprising varying amounts of terconazole and various acids. The data in Table 2 clearly indicate that solutions having a terconazole concentration of at least about 3 percent by weight and free from terconazole crystals at 20° C. were obtained utilizing tartaric acid and malic acid.

[3] = neutral pH; cited from earlier work
[4] = Combined solubilization of tinidazole and terconazole in water with citric acid; type: physicochemical; conditions: 20° C., terconazole about 0.8 percent by weight
Protocol: Weighed amounts of tinidazole and terconazole were added to separate containers including citric acid in water, applying heat, if necessary, to dissolve the tinidazole and terconazole. The amount of citric acid was selected to be about equimolar with the molar amount of tinidazole and terconazole added. After the tinidazole and terconazole was dissolved, each solution was cooled to about 4° C. to force crystallization of the tinidazole and terconazole. If crystals were not observed upon cooling, seed crystals of tinidazole were added and the solutions were again cooled to about 4° C. […] The absence of crystals after 14 days indicates effective dissolution of tinidazole and terconazole. Table 3 includes dissolution data for a number of compositions comprising varying amounts of tinidazole, terconazole and citric acid. The data in Table 3 clearly indicate that solutions having a tinidazole concentration of at least about 0.6 percent by weight and a terconazole concentration of about 0.8 percent by weight and free from crystals at 20° C. were obtained utilizing citric acid.

[5] = Solubilization of tinidazole in water with acid (crystal observation); type: physicochemical; conditions: 20° C., at least 14 days
Protocol: Weighed amounts of tinidazole were added to separate containers including an acid in water, applying heat, if necessary, to dissolve the tinidazole. The amount of acid was selected to be about equimolar with the amount of tinidazole added. After the tinidazole was dissolved, each solution was cooled to about 2° C. to force crystallization of some of the tinidazole. If crystals were not observed upon cooling, seed crystals of tinidazole were added. After crystal formation was observed, the solutions were allowed to warm to room temperature (about 20° C.). […] The absence of crystals after 14 days indicates effective dissolution of tinidazole. Table 1 includes dissolution data for a number of compositions comprising varying amounts of tinidazole and various acids. The data in Table 1 clearly indicate that solutions having a tinidazole concentration of at least about 0.5 percent by weight and free from tinidazole crystals at 20° C. were obtained utilizing citric acid, hydrochloric acid, acetic acid, tartaric acid, and malic acid. Tinidazole concentrations as high as about 0.55 percent by weight were obtained utilizing tartaric acid and citric acid.

CC(C)N1CCN(c2ccc(OCC3COC(Cn4cncn4)(c4ccc(Cl)cc4Cl)O3)cc2)CC1 (stereo not drawn) [TER, cis-1-[p[[2-(2,4-dichlorophenyl)-2-(1 H-1,2,4-triazol-1-ylmethyl)-1,3-dioxolan-4-yl]methoxy]phenyl]-4-isopropylpiperazine]
at least 3 percent by weight: terconazole concentration of solutions free from terconazole crystals ([2]; 20° C., about 14 days, tartaric acid and malic acid)
2.4 percent by weight: terconazole solubilized ([2]; citric acid, separate study)
(+): growth ([1]; TER 3.1 μg/ml, DAY 1) | growth ([1]; TER 3.1 μg/ml, DAY 2) | growth ([1]; TER 3.1 μg/ml, DAY 3) | growth ([1]; TER 3.1 μg/ml, DAY 4) | growth ([1]; TER 3.1 μg/ml, DAY 5) | growth ([1]; TER 6.2 μg/ml, DAY 1) | growth ([1]; TER 6.2 μg/ml, DAY 2) | growth ([1]; TER 6.2 μg/ml, DAY 3) | growth ([1]; TER 6.2 μg/ml, DAY 4) | growth ([1]; TER 6.2 μg/ml, DAY 5) | growth ([1]; TER 12.5 μg/ml, DAY 1) | growth ([1]; TER 12.5 μg/ml, DAY 2) | growth ([1]; TER 12.5 μg/ml, DAY 3) | growth ([1]; TER 12.5 μg/ml, DAY 4) | growth ([1]; TER 12.5 μg/ml, DAY 5) | growth ([1]; TER 25 μg/ml, DAY 1) | growth ([1]; TER 25 μg/ml, DAY 2) | growth ([1]; TER 25 μg/ml, DAY 3) | growth ([1]; TER 25 μg/ml, DAY 4) | growth ([1]; TER 25 μg/ml, DAY 5) | growth ([1]; TER 50 μg/ml, DAY 1) | growth ([1]; TER 50 μg/ml, DAY 2) | growth ([1]; TER 50 μg/ml, DAY 3) | growth ([1]; TER 50 μg/ml, DAY 4) | growth ([1]; TER 50 μg/ml, DAY 5) | growth ([1]; TER 100 μg/ml, DAY 1) | growth ([1]; TER 100 μg/ml, DAY 2) | growth ([1]; TER 100 μg/ml, DAY 3) | growth ([1]; TER 100 μg/ml, DAY 4) | growth ([1]; TER 100 μg/ml, DAY 5) | growth ([1]; TER 200 μg/ml, DAY 1) | growth ([1]; TER 200 μg/ml, DAY 5) | growth ([1]; TER 400 μg/ml, DAY 1) | growth ([1]; TER 400 μg/ml, DAY 5) | growth ([1]; TER 800 μg/ml, DAY 1) | growth ([1]; TER 800 μg/ml, DAY 5)
substantially insoluble: solubility in water (in words) [3]

CCS(=O)(=O)CCn1c([N+](=O)[O-])cnc1C [TNZ, 1-[2-(ethylsulfonyl)ethyl]-2-methyl-5-nitroimidazole]
about 0.55 percent by weight: tinidazole concentration of solutions free from tinidazole crystals ([5]; tartaric acid and citric acid)
at least 0.6 percent by weight: tinidazole concentration of solutions free from crystals [4]
(+): growth ([1]; TNZ 2 μg/ml, DAY 1) | growth ([1]; TNZ 2 μg/ml, DAY 2) | growth ([1]; TNZ 2 μg/ml, DAY 3) | growth ([1]; TNZ 2 μg/ml, DAY 4) | growth ([1]; TNZ 2 μg/ml, DAY 5) | growth ([1]; TNZ 3.9 μg/ml, DAY 1) | growth ([1]; TNZ 3.9 μg/ml, DAY 2) | growth ([1]; TNZ 3.9 μg/ml, DAY 3) | growth ([1]; TNZ 3.9 μg/ml, DAY 4) | growth ([1]; TNZ 3.9 μg/ml, DAY 5) | growth ([1]; TNZ 7.8 μg/ml, DAY 1) | growth ([1]; TNZ 7.8 μg/ml, DAY 2) | growth ([1]; TNZ 7.8 μg/ml, DAY 3) | growth ([1]; TNZ 7.8 μg/ml, DAY 4) | growth ([1]; TNZ 7.8 μg/ml, DAY 5) | growth ([1]; TNZ 15.6 μg/ml, DAY 1) | growth ([1]; TNZ 15.6 μg/ml, DAY 2) | growth ([1]; TNZ 15.6 μg/ml, DAY 3) | growth ([1]; TNZ 15.6 μg/ml, DAY 4) | growth ([1]; TNZ 15.6 μg/ml, DAY 5) | growth ([1]; TNZ 31.3 μg/ml, DAY 1) | growth ([1]; TNZ 31.3 μg/ml, DAY 2) | growth ([1]; TNZ 31.3 μg/ml, DAY 3) | growth ([1]; TNZ 31.3 μg/ml, DAY 4) | growth ([1]; TNZ 31.3 μg/ml, DAY 5) | growth ([1]; TNZ 62.5 μg/ml, DAY 1) | growth ([1]; TNZ 62.5 μg/ml, DAY 2) | growth ([1]; TNZ 62.5 μg/ml, DAY 3) | growth ([1]; TNZ 62.5 μg/ml, DAY 4) | growth ([1]; TNZ 62.5 μg/ml, DAY 5) | growth ([1]; TNZ 125 μg/ml, DAY 1) | growth ([1]; TNZ 125 μg/ml, DAY 2) | growth ([1]; TNZ 125 μg/ml, DAY 3) | growth ([1]; TNZ 125 μg/ml, DAY 4) | growth ([1]; TNZ 125 μg/ml, DAY 5) | growth ([1]; TNZ 250 μg/ml, DAY 1) | growth ([1]; TNZ 250 μg/ml, DAY 2) | growth ([1]; TNZ 250 μg/ml, DAY 3) | growth ([1]; TNZ 250 μg/ml, DAY 4) | growth ([1]; TNZ 250 μg/ml, DAY 5) | growth ([1]; TNZ 500 μg/ml, DAY 1) | growth ([1]; TNZ 500 μg/ml, DAY 2) | growth ([1]; TNZ 500 μg/ml, DAY 3) | growth ([1]; TNZ 500 μg/ml, DAY 4) | growth ([1]; TNZ 500 μg/ml, DAY 5)
at least 0.5 percent by weight: tinidazole concentration of solutions free from tinidazole crystals ([5]; citric acid, hydrochloric acid, acetic acid, tartaric acid, and malic acid, about equimolar)
about 0.45 percent by weight: solubility in water [3]
